# Key:
# SAMP8 mice [1] = assay: Novel Object Recognition Protocol Test (NORPT); format: in vivo, mouse; conditions: 12 month-old SAMP8 mice, 1 mg/kg IP every 48 hours for 5 weeks
# Procedure: FIG. 1 depicts the effects of a selective A3AR agonist, MRS5980, on learning and memory in 12 month-old SAMP8 mice. The selective A3AR agonist, MRS5980 (1 mg/kg, IP) or vehicle (saline) was given every 48 hours for 5 weeks starting at 12 months of age. Behavioral testing began after 3 weeks of treatment. NORPT—the Novel Object Recognition Protocol Test is a memory task that involves the hippocampus when, as performed herein, the retention interval is 24 hours after initial exposure to the two like objects. Mice received three 5 minutes habituation trials in an empty apparatus separated by 2 hours, the day prior to entry of the objects. During the training session, the mouse was exposed to two similar objects (plastic frogs) which it was allowed to examine for 5 minutes. The apparatus and the objects were cleaned between each trial to remove odor cures. Twenty-four hours later, the mouse was exposed to one of the original objects and a new novel object (plastic bird) and the time spent examining the objects was recorded. The results are expressed as Discrimination index=(Total new−Total old)/Total new+Total old)]. The novel object was made out of the same material as the original object and of the same size, but a different shape. […] Number of attempts before first successful avoidance of the shock in T-maze and retention (memory) for the T-maze one-week later was also determined. […]
# SAMP8 mice [2] = assay: T-maze shock avoidance, acquisition and one-week retention; format: in vivo, mouse; conditions: 12 month-old SAMP8 mice, 1 mg/kg IP every 48 hours for 5 weeks
# Procedure: FIG. 1 depicts the effects of a selective A3AR agonist, MRS5980, on learning and memory in 12 month-old SAMP8 mice. The selective A3AR agonist, MRS5980 (1 mg/kg, IP) or vehicle (saline) was given every 48 hours for 5 weeks starting at 12 months of age. Behavioral testing began after 3 weeks of treatment. NORPT—the Novel Object Recognition Protocol Test is a memory task that involves the hippocampus when, as performed herein, the retention interval is 24 hours after initial exposure to the two like objects. Mice received three 5 minutes habituation trials in an empty apparatus separated by 2 hours, the day prior to entry of the objects. During the training session, the mouse was exposed to two similar objects (plastic frogs) which it was allowed to examine for 5 minutes. The apparatus and the objects were cleaned between each trial to remove odor cures. Twenty-four hours later, the mouse was exposed to one of the original objects and a new novel object (plastic bird) and the time spent examining the objects was recorded. The results are expressed as Discrimination index=(Total new−Total old)/Total new+Total old)]. The novel object was made out of the same material as the original object and of the same size, but a different shape. The underlying concept of the NORPT is based on the tendency of mice to spend more time exploring new objects than familiar ones. Thus, the greater the retention/memory at 24 hours, the more time spent with the new object the higher the discrimination. […] Number of attempts before first successful avoidance of the shock in T-maze and retention (memory) for the T-maze one-week later was also determined. Retention was defined as number of trial to successfully avoid the shock 5 out of 6 consecutive trials. […] ANOVA followed by pairwise Tukey's post hoc test. Means±SEM; n=6-8/group; **p<0.01.
# [3] = vs old vehicle treated controls
compound,measurement,setting,value
CNC(=O)[C@@]12C[C@@H]1[C@@H](n1cnc3c(NC)nc(C#Cc4ccc(Cl)s4)nc31)[C@H](O)[C@@H]2O [MRS5980],Discrimination index (memory at 24 hours) in NORPT,SAMP8 mice [1]; old treated mice vs young mice,no difference between the young mice and the old A3 AR treated mice
same,Discrimination index (memory at 24 hours) in NORPT,"SAMP8 mice [1]; retention interval 24 hours, vs vehicle treated controls, **p<0.01",significantly better memory than vehicle treated controls
same,T-maze learning and retention,SAMP8 mice [2]; old treated mice vs young vehicle treated controls,no difference between the young vehicle treated controls and the old A3AR treated mice
same,Number of attempts before first successful avoidance of the shock in T-maze (learning),SAMP8 mice [2]; [3],learned and remembered the T-maze better than the old vehicle treated controls
same,"Retention (memory) for the T-maze one-week later, trials to avoid the shock 5 out of 6 consecutive trials",SAMP8 mice [2]; [3],remembered the T-maze better than the old vehicle treated controls

# Reference: US20220218712A1, “TREATMENT OF ALZHEIMER'S DISEASE” (Saint Louis University, priority 2019, published 2022)
